For one experiment, the system named is BT-474 cells. Particulars: for IC50: read-out: IC50 BT-474 (HER2+), antiproliferative activity. The method, then:
(§1) Antiproliferative activity of grafted cyclic peptides. Antiproliferative activity of the designed grafted peptides was evaluated in different HER2-overexpressing cancer cell lines as well as HER2 negative cancer cell lines.
(§2) Table 1. […] Single letter amino acid code was used for peptide sequence. Lower case letters refer to D amino acids and capital letters refer to L amino acids. Chirality of Anapa was indicated with R and S configuration in italics. Antiproliferative activity of peptides in cancer cell lines are given as IC50 in μM. Disulfide bonds between the cysteines are underlined.

The next experiment concerns MCF-7 cells. Particulars: read-out: IC50 MCF-7 (HER2−); antiproliferative activity. The procedure:
as §1, §2

Experiment [1] addresses T1, CD2:CD58 interaction (Jurkat T cells / OVCAR-3 cells) (Homo sapiens, UniProt P19256).
T1 construct: CD2+ Jurkat T cells and CD58+ OVCAR-3 cells; endogenous in cells; host or cells: OVCAR-3 (CD58) and Jurkat (CD2)
T1 sequence (P19256 29-250): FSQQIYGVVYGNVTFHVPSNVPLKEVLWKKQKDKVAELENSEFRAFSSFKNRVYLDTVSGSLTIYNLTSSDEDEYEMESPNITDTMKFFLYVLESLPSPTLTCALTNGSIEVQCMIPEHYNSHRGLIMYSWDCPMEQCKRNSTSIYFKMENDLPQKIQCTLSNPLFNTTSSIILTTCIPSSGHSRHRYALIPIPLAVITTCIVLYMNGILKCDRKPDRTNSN
The experiment is described as follows: cell adhesion inhibition, Jurkat / OVCAR-3 cells. Type of experiment: cell-based.
Procedure: (§7) The ability of peptides to inhibit the CD2:CD58 protein-protein interaction was studied by evaluating the adhesion interaction between cells using model systems. […] The model systems we used included Jurkat and ovarian cancer (OVACR-3) cells and Jurkat and human fibroblast-like synoviocyte-rheumatoid arthritis (HFLS-RA) cells. Since OVCAR-3 cells and HFLS-RA cells express CD58, adhesion interactions between CD2 and CD58 can be studied using these model systems. Peptides were incubated with adherent cells that expressed CD58, and Jurkat cells were added to evaluate the adhesion. […] A broad range of concentrations (0.0005 to 200 μM) was used in the first screen and based on the inhibitory activity of the peptides in that concentration range, data points for a dose-response study were chosen. The concentration-response curves for the various peptides were obtained in the range of 0.0005 to 10 μM.
(§8) Cell adhesion was also evaluated in a well-established E-rosetting assay. […] To evaluate the cell adhesion inhibitory activity of peptides from cells associated with autoimmune disease, we used HFLS-RA cells derived from RA patients.

Experiment [2] deals with T2, CD2:CD58 interaction (Jurkat T cells / HFLS-RA cells) (Homo sapiens, UniProt P19256).
T2 construct: we used HFLS-RA cells derived from RA patients; endogenous in cells; host or cells: HFLS-RA (CD58) and Jurkat (CD2)
T2 sequence (P19256 29-250): T1 sequence (P19256 29-250)
As to the kind of experiment: cell adhesion inhibition, Jurkat / HFLS-RA cells. It is filed as cell-based.
Procedure: as §7, §8

The test system of experiment [3] is CD2:CD58. As to the kind of experiment: Cell adhesion inhibition IC50 (µM) | T cell-OVCAR-3. The procedure:
(§3) Table printed on a drawing sheet, Fig. 5
Head of the field: Cell adhesion inhibition IC50 (µM) | T cell-OVCAR-3
(§4) Table of stable peptides designed based on sunflower trypsin inhibitor (SFTI) and their cell adhesion inhibition activities in a model system. OVCAR-3 and HFLS-RA cells express CD58. Jurkat T cells express CD2 protein. Inhibition of adhesion between Jurkat and OVCAR-3/HFLS-RA cells was evaluated. Cell adhesion inhibition is represented as IC50 value
(§5) First copying reader's note: In the SFTI sequences the stretch from the first C to the second C is underlined on the sheet; the ± error stands inside the IC50 cells.
(§6) Where the first naming reader finds the target: description_of_the_figure: OVCAR-3 and HFLS-RA cells express CD58. Jurkat T cells express CD2 protein. Inhibition of adhesion between Jurkat and OVCAR-3/HFLS-RA cells was evaluated.

The test system of experiment [4] is CD2:CD58. The experiment is described as follows: Cell adhesion inhibition IC50 (µM) | T cell-HFLS-RA. The procedure:
as §3
Head of the field: Cell adhesion inhibition IC50 (µM) | T cell-HFLS-RA
as §4, §5, §6

The test system of another experiment is A549 cells. Particulars: read-out: IC50 A549 (HER2+); antiproliferative activity. The procedure:
as §1, §2

Another experiment deals with Calu-3 cells. The settings on record: read-out: IC50 Calu-3 (HER2+); antiproliferative activity. The procedure:
as §1, §2

The target of a further experiment is T3, CD2:CD58 interaction (Homo sapiens, UniProt P19256).
T3 construct: Peptides were incubated with adherent cells that expressed CD58; endogenous in cells; host or cells: Jurkat T cells with OVCAR-3 or HFLS-RA cells
T3 sequence (P19256 29-250): T1 sequence (P19256 29-250)
The experiment is described as follows: cell adhesion inhibition between T cells (CD2) and epithelial cells (CD58), model systems. It is filed as cell-based.

In a further experiment the test system is Calu-3 xenograft tumors. The experiment is described as follows: Calu-3 xenograft model of lung cancer in nude mice. Particulars: Calu-3 xenograft; SFTI-G5 8 mg/kg intratumoral thrice a week; antibodies 12 then 6 mg/kg once a week. Type of experiment: in vivo. The procedure:
5×10^6 Calu-3 cells suspended in serum-free medium were subcutaneously inoculated in left flank region of mice to induce lung cancer (Foxn1-nude). Peptide (8 mg/kg) was administered via intratumoral injection three times a week after 10 days, Pertuzumab was injected with a loading dose of 12 mg/kg and then 6 mg/kg as maintenance dose intraperitonially once a week, Trastuzumab and pertuzumab combination was injected at a loading dose of 12 mg/kg and then 6 mg/kg as maintenance dose once a week. […] For comparison, pertuzumab (up triangle, blue) and trastuzumab and pertuzumab combination (down triangle, red) also shown (with standard errors for n=6). […] C) PPI inhibition assessed by PLA on tumor tissue sample. […] Tumor sections were homogenized, and protein was extracted and subjected to Western blot. […] (** p<0.01). Mean±SEM.
HER2 dimerization inhibitors such as pertuzumab and trastuzumab and pertuzumab combinations were also administered as control groups (FIG. 11A). […] During the course of the experiment, the tumor size in the control xenograft group without any treatment continued to increase, reaching a diameter of ˜9 mm in 28 days (FIG. 11B).
To evaluate the phosphorylation of HER2 protein, Western blot analysis was performed on frozen tumor samples.

Numbered stars: 1 amine (or outer) side, 2 acyl side, 3 side chain; on linkers, the order of the positions; unused ones are H or OH. Bridge positions count the residues as written; N and C are the ends. Square brackets hold non-standard residues; d marks the D form. Peptide text beside a SMILES is read from it. βAla(3R-(1-naphthyl)) = O=C(C[C@@H](N[*:1])c1cccc2ccccc12)[*:2]; βAla(3S-(1-naphthyl)) = O=C(C[C@H](N[*:1])c1cccc2ccccc12)[*:2]; X1 = O=C(CCc1cccc2c1oc1c(CCN[*:1])cccc12)[*:2]

Take `CC[C@H](C)[C@@H]1NC(=O)[C@H](CO)NC(=O)[C@H](CC(=O)O)NC(=O)[C@H](Cc2ccccc2)NC(=O)[C@@H]2CSSC[C@H](NC(=O)[C@H](Cc3ccccc3)NC(=O)[C@H](CC(=O)O)NC(=O)[C@@H]3CCCN3C(=O)[C@@H]3CCCN3C1=O)C(=O)N[C@H](c1cccc3ccccc13)CC(=O)N[C@@H](CCCNC(=N)N)C(=O)N1CCC[C@H]1C(=O)NCC(=O)N[C@@H](CCCNC(=N)N)C(=O)N[C@H](c1cccc3ccccc13)CC(=O)N2` [SFTI-G4] (cyclo(C[βAla(3S-(1-naphthyl))]RPGR[βAla(3S-(1-naphthyl))]CFDSIPPDF); disulfide 1-8): the values for the half-inhibitory concentration (IC50) with BT-474 cells and in the experiment on MCF-7 cells were 17.2 ± 1.03 µM and above 30 µM, respectively.
Regarding `C[C@@H]1NC(=O)[C@@H]2CSSC[C@H](NC(=O)[C@H](CC(=O)O)NC(=O)[C@H](CC(=O)O)NC(=O)CNC(=O)[C@H](CC(=O)O)NC(=O)[C@H](Cc3ccc(O)cc3)NC1=O)C(=O)N[C@@H](CCCCN)C(=O)N[C@@H](CO)C(=O)N[C@@H](C)C(=O)NCCc1cccc3c1Oc1c(cccc1-3)CCC(=O)N[C@@H](CO)C(=O)N2` [SFTI-DBF] (cyclo(AYDGDDCKSA[X1]SC); disulfide 7-13), the IC50 turned out to be 0.61 nM in [1] and 3 nM in [2].
As to “Cyclo(CTKSIPPICFPDGR) (cyclic) [SFTI-wt (control)]”, the IC50 with CD2:CD58 [3] and in the experiment with CD2:CD58 [4] was above 50 µM each time.
As for `CC[C@H](C)[C@@H]1NC(=O)[C@H](C)NC(=O)C[C@@H](c2cccc3ccccc23)NC(=O)[C@@H]2CSSC[C@H](NC(=O)C[C@@H](c3cccc4ccccc34)NC(=O)[C@H](C)NC(=O)[C@@H]3CCCN3C(=O)[C@@H]3CCCN3C1=O)C(=O)N[C@@H](C)C(=O)N1CCC[C@H]1C(=O)N[C@@H](CC(=O)O)C(=O)N[C@@H](C)C(=O)N[C@@H](Cc1ccccc1)C(=O)N2` [Control-G, Cyclo(C(S-X)AIPPA(S-X)CAPDAF), reference compound] (cyclo(AFC[βAla(3S-(1-naphthyl))]AIPPA[βAla(3S-(1-naphthyl))]CAPD); disulfide 3-11), the IC50 with A549 cells, with BT-474 cells, with Calu-3 cells and in the experiment with MCF-7 cells was above 50 µM throughout.
As for `CC[C@H](C)[C@@H]1NC(=O)[C@H](CO)NC(=O)[C@H](CC(=O)O)NC(=O)[C@H](Cc2ccccc2)NC(=O)[C@@H]2CSSC[C@H](NC(=O)[C@H](Cc3ccccc3)NC(=O)[C@H](CC(=O)O)NC1=O)C(=O)N[C@H](c1cccc3ccccc13)CC(=O)N[C@@H](CCCNC(=N)N)C(=O)N[C@@H](CC(=O)O)C(=O)N[C@@H](CCCNC(=N)N)C(=O)N[C@H](c1cccc3ccccc13)CC(=O)N2` [SFTI-G1, Cyclo(C(S-X)RDR(S-X)CFDSIDF)] (cyclo(C[βAla(3S-(1-naphthyl))]RDR[βAla(3S-(1-naphthyl))]CFDSIDF); disulfide 1-7), the IC50 is 4.16 ± 0.179 µM in the experiment with BT-474 cells and above 50 µM in the experiment on MCF-7 cells.
The matching figures for `N=C(N)NCCC[C@@H]1NC(=O)[C@@H]2CCCN2C(=O)[C@@H]2CCCN2C(=O)[C@H](CCCNC(=N)N)NC(=O)C[C@H](c2cccc3ccccc23)NC(=O)[C@@H]2CSSC[C@H](NC(=O)C[C@H](c3cccc4ccccc34)NC1=O)C(=O)N[C@@H](Cc1ccccc1)C(=O)N2` [SFTI-G3, Cyclo(C(R-X)RPPR(R-X)CF)] (cyclo(C[βAla(3R-(1-naphthyl))]RPPR[βAla(3R-(1-naphthyl))]CF); disulfide 1-8): 3.65 ± 0.41 µM and above 50 µM.
`C[C@@H]1NC(=O)[C@@H]2CSSC[C@H](NC(=O)[C@H](CC(=O)O)NC(=O)[C@H](CC(=O)O)NC(=O)CNC(=O)[C@H](CC(=O)O)NC(=O)[C@H](Cc3ccc(O)cc3)NC1=O)C(=O)N[C@@H](CCCCN)C(=O)N[C@@H](CO)C(=O)N[C@@H](C)C(=O)N1CCC[C@H]1C(=O)N1CCC[C@H]1C(=O)N[C@@H](CO)C(=O)N2` [SFTI-a1] (cyclo(APPSCAYDGDDCKS); disulfide 5-12): the IC50 at CD2:CD58 interaction came out at 22 nM; with CD2:CD58 [4], 0.0388 ± 0.0102 µM.
For `N=C(N)NCCC[C@@H]1NC(=O)[C@H]2CCCN2C(=O)[C@@H]2CCCN2C(=O)[C@H](CCCNC(=N)N)NC(=O)C[C@H](c2cccc3ccccc23)NC(=O)[C@@H]2CSSC[C@H](NC(=O)C[C@H](c3cccc4ccccc34)NC1=O)C(=O)N[C@@H](Cc1ccccc1)C(=O)N[C@@H](Cc1ccccc1)C(=O)N2` [SFTI-G2, Cyclo(C(R-X)RPpR(R-X)CFF)] (cyclo(C[βAla(3R-(1-naphthyl))]RP[dP]R[βAla(3R-(1-naphthyl))]CFF); disulfide 1-8), the IC50 in the experiment with BT-474 cells was 5.23 ± 1.38 µM; with MCF-7 cells, above 50 µM.
For the molecule “pertuzumab: antibody known to bind HER2 ECD domain II and inhibit dimerization of EGFRs [reference compound]”, in the experiment with Calu-3 xenograft tumors, the tumor growth result is recorded as “significantly reduced tumor growth progression”.
Turning to `CC[C@H](C)[C@@H]1NC(=O)[C@H](CCCNC(=N)N)NC(=O)C[C@H](c2cccc3ccccc23)NC(=O)[C@@H]2CSSC[C@H](NC(=O)C[C@H](c3cccc4ccccc34)NC(=O)[C@H](CCCNC(=N)N)NC(=O)[C@@H]3CCCN3C(=O)[C@@H]3CCCN3C1=O)C(=O)N[C@@H](Cc1ccccc1)C(=O)N1CCC[C@H]1C(=O)N[C@@H](CC(=O)O)C(=O)N[C@@H](CC(=O)O)C(=O)N[C@@H](Cc1ccccc1)C(=O)N2` [SFTI-G6, Cyclo(C(R-X)RIPPR(R-X)CFPDDF)], the “change of antiproliferative activity on altering Anapa chirality (S to R)” value with BT-474 cells (SFTI-G6 versus SFTI-G5) is given as “tenfold decrease”. The half-maximal inhibitory concentration (IC50) with BT-474 cells is 2.94 ± 1.06 µM; in the experiment with MCF-7 cells it was above 50 µM.
Turning to `C[C@@H]1NC(=O)[C@H](CCCCN)NC(=O)[C@@H]2CSSC[C@H](NC(=O)[C@H](CO)NC(=O)[C@@H]3CCCN3C(=O)[C@@H]3CCCN3C(=O)[C@H](C)NC(=O)[C@H](CO)NC1=O)C(=O)N[C@@H](Cc1ccc(O)cc1)C(=O)N[C@@H](CC(=O)O)C(=O)NCC(=O)N[C@@H](CC(=O)O)C(=O)N[C@@H](CC(=O)O)C(=O)N2` [SFTI-a] (cyclo(APPSCYDGDDCKAS); disulfide 5-11), it took 0.043 ± 0.025 µM to reach half-maximal inhibition in the experiment on CD2:CD58 [3] (IC50).
For the molecule `N=C(N)NCCC[C@@H]1NC(=O)[C@H]2CCCN2C(=O)[C@@H]2CCCN2C(=O)[C@H](CCCNC(=N)N)NC(=O)C[C@H](c2cccc3ccccc23)NC(=O)[C@H](Cc2ccccc2)NC(=O)[C@H](CC(=O)O)NC(=O)[C@H](CC(=O)O)NC(=O)[C@H](Cc2ccccc2)NC(=O)C[C@H](c2cccc3ccccc23)NC1=O` [Compound 18, Cyclo(PpR(R-X)FDDF(R-X)R), reference compound] (cyclo(P[dP]R[βAla(3R-(1-naphthyl))]FDDF[βAla(3R-(1-naphthyl))]R)), in the experiment on MCF-7 cells, the IC50 was above 50 µM.

The record behind these values is US20200347136A1, “CONSTRAINED CYCLIC PEPTIDES AS INHIBITORS OF THE CD2:CD58 PROTEIN-PROTEIN INTERACTION FOR TREATMENT OF DISEASES AND AUTOIMMUNE DISORDERS” (Board of Supervisors for the University of Louisiana System, priority 2019, published 2020).
